{
  "source": "patent EP4789666A1",
  "about": "“RNA M6A REGULATOR COMPOSITION, PREPARATION METHOD THEREFOR, AND USE THEREOF” (SHANGHAI MERNA THERAPEUTICS CO. LTD, priority 2023, dated 2025)",
  "key": {"[1]": {"tested_on": "rat models with hand-foot skin reaction", "experiment": "Rat models with hand-foot skin reaction, topical ointment (incidence rate, histology, immunohistochemistry)", "format": "in vivo, SD rats", "details": "for Incidence rate, left paw: once daily 30 days; for Incidence rate, right paw: right paw with blank matrix ointment (self-control)", "procedure": "After adaptive feeding for one week, SD rats (with a body weight of approximately 200 g) were randomly divided into groups with balanced body weight, with 12 rats in each group. Modeling drugs (including sorafenib, erlotinib, afatinib, and osimertinib) were respectively dissolved in a solution containing 5% of DMSO, 45% of PEG400, and 50% of H2O, and the modeling drugs were diluted to required concentrations and then administered once daily by gavage at doses shown in Table 3. After administration by gavage for 1 hour, 0.05 g of ointments containing different mass proportions of test compounds were evenly applied to left paws of the rats, a blank matrix ointment was applied to right paws of the rats to serve as a self-control, and no ointment was applied to the rats in a blank control group. After drug application, four limbs were continuously immobilized for 2 hours, then wiped with clean water to remove the residual drugs, removed from immobilization, and restored to free movement. The modeling drugs, the blank matrix ointment, and the ointments containing the test compounds were all administered once daily. After continuous administration for 30 days, the rats were euthanized, and paw plantar skin tissues were collected, fixed in 10% neutral formalin, […]. The ointments for the test compounds were prepared by mixing the compounds, white beeswax, white petrolatum, and light liquid paraffin in specific ratios (weight ratios of 3 ointments were respectively 1:18:58:23, 3:18:57:22, and 10:20:40:30). The blank matrix ointment was prepared by mixing white beeswax, white petrolatum, and light liquid paraffin in a specific ratio (weight ratio of 18:60:22).\nTissue staining: After dewaxing and rehydration, the paw plantar skin tissue sections of the above rats were stained in a hematoxylin solution for several minutes, cleaned, and placed in 1% acid alcohol for soaking until the sections faded to light blue-red. After cleaning with running water for 5 minutes, the sections were stained with eosin for 2-3 minutes, cleaned to remove excess dyes, dehydrated, then permeabilized by adding xylene for several minutes, and sealed and fixed with a neutral resin. The stratum corneum was observed under an optical microscope, and the thickness of the epidermal stratum corneum was measured using Dmetrix software.\nImmunohistochemical staining: After dewaxing and hydration, the paw plantar skin tissue sections of the above rats were incubated with 3% H2O2 at room temperature for 30 minutes and blocked with 10% goat serum for 30 minutes after antigen retrieval. A KRT1 antibody (Abcam, ab93652) and a Loricrin antibody (Abcam, ab183646) were added dropwise, the sections were incubated overnight at 4°C, and an HRP secondary antibody (ZSGB-BIO, PV-6001) and a DAB kit (ZSG-BIO, ZLI9017) were added for color development. The sections were re-stained with hematoxylin, cleaned, and sealed and fixed with a neutral resin, and the expression amounts of KRT1 and Loricrin were observed under an optical microscope.\nAn incidence rate calculation method involves a proportion of animals in each group meeting the above criteria for determining successful modeling, that is, incidence rate = (number of successfully modeled rats/total number of rats in the group)*100%. […]"}, "[2]": {"experiment": "Pharmacokinetic study after single topical administration of ointment to the skin of CD-1 mice (LC-MS/MS)", "format": "in vivo", "details": "3% suspension ointment", "procedure": "6 CD-1 mice were divided into 2 groups, with 3 mice per group, and then respectively received an ointment containing the compound of formula (I) by single topical administration to the backs at 1 mg/cm^2 (3% suspension ointment) with an application area of 1 cm^2. The plasma concentration and skin tissue homogenate concentration of the compound of formula (I) were determined by an LC-MS/MS method."}, "[3]": {"experiment": "Pharmacokinetic study after single topical administration of ointment to the skin of Bama miniature pigs (LC-MS/MS)", "format": "in vivo", "details": "pig, 3% suspension ointment, 20 mg/cm^2, mean", "procedure": "2 Bama miniature pigs respectively received an ointment containing the compound of formula (I) by single topical application to the dorsal and abdominal skin at 20 mg/cm^2 (3% suspension ointment), with a total application area of 6.8% of a body surface area, and a ratio of application areas between the dorsal and abdominal skin being approximately 1:1. The plasma concentration and skin tissue homogenate concentration of the compound of formula (I) were determined by an LC-MS/MS method."}, "[4]": {"experiment": "Pharmacokinetic study after single topical administration of ointment to the skin of SD rats (LC-MS/MS)", "format": "in vivo", "details": "rat, 20 mg/cm^2, SD rats, 20 mg/cm^2, 20 cm^2, mean", "procedure": "6 SD rats were divided into two groups, with 3 rats per group, where one group received an ointment containing the compound of formula (I) by single topical application to the dorsal skin at 20 mg/cm^2 (3% suspension ointment), with an application area of 20 cm^2, and the other group received an ointment containing the compound of formula (I) by single topical application to the dorsal skin at 20 mg/cm^2 (10% suspension ointment), with an application area of 20 cm^2. The plasma concentration and dorsal skin tissue homogenate concentration of the compound of formula (I) were determined by an LC-MS/MS method."}, "[5]": {"experiment": "Stability test of binary mixtures of the compound of formula (I) and penetration enhancers", "format": "physicochemical", "details": "binary mixture 10:1, 40°C/75%RH", "procedure": "Different types of penetration enhancers and the compound of formula (I) were mixed at a weight ratio of 10:1 to carry out a stability test under accelerated conditions of 40°C/75%RH. Table 15: Stability test of binary mixtures of the compound of formula (I) and penetration enhancers"}, "[6]": {"details": "Afatinib 50 mg/kg model, 1% ointment on left paw"}, "[7]": {"details": "Afatinib 50 mg/kg model, 3% ointment on left paw"}, "[8]": {"details": "Afatinib 50 mg/kg model, 10% ointment on left paw"}, "[9]": {"details": "Erlotinib 70 mg/kg model, 1% ointment on left paw"}, "[10]": {"details": "Erlotinib 70 mg/kg model, 3% ointment on left paw"}, "[11]": {"details": "Erlotinib 70 mg/kg model, 10% ointment on left paw"}, "[12]": {"details": "Osimertinib 60 mg/kg model, 1% ointment on left paw"}, "[13]": {"details": "Osimertinib 60 mg/kg model, 3% ointment on left paw"}, "[14]": {"details": "Osimertinib 60 mg/kg model, 10% ointment on left paw"}, "[15]": {"details": "Sorafenib 100 mg/kg model, 1% ointment on left paw"}, "[16]": {"details": "Sorafenib 100 mg/kg model, 3% ointment on left paw"}, "[17]": {"details": "Sorafenib 100 mg/kg model, 10% ointment on left paw"}, "[18]": {"details": "dorsal skin tissue homogenate, 1 mg/cm^2, mean"}, "[19]": {"details": "mouse, topical or ocular, plasma, 1 mg/cm^2, mean"}},
  "note": "Like-named read-outs stand apart in the source and are kept apart here.",
  "data": [
    {"smiles": "NC(=O)[C@H]1CCCc2c1[nH]c1ccc(Cl)cc21", "note": "[Compound of formula (I), (S)-6-chloro-2,3,4,9-tetrahydro-1H-carbazole-carboxamide]", "values": [
      {"measurement": "Incidence rate, left paw", "setting": "[1]; [6]", "value": "3/12 (25%)"},
      {"measurement": "Incidence rate, left paw", "setting": "[1]; [7]", "value": "2/12 (17%)"},
      {"measurement": "Incidence rate, left paw", "setting": "[1]; [8]", "value": "0/12 (0%)"},
      {"measurement": "Incidence rate, right paw", "setting": "[1]; [6]", "value": "9/12 (75%)"},
      {"measurement": "Incidence rate, right paw", "setting": "[1]; [7]", "value": "4/12 (33%)"},
      {"measurement": "Incidence rate, right paw", "setting": "[1]; [8]", "value": "3/12 (25%)"},
      {"measurement": "Incidence rate, left paw", "setting": "[1]; [9]", "value": "3/12 (25%)"},
      {"measurement": "Incidence rate, left paw", "setting": "[1]; [10]", "value": "2/12 (17%)"},
      {"measurement": "Incidence rate, left paw", "setting": "[1]; [11]", "value": "1/12 (8%)"},
      {"measurement": "Incidence rate, right paw", "setting": "[1]; [9]", "value": "10/12 (83%)"},
      {"measurement": "Incidence rate, right paw", "setting": "[1]; [10]", "value": "5/12 (42%)"},
      {"measurement": "Incidence rate, right paw", "setting": "[1]; [11]", "value": "4/12 (33%)"},
      {"measurement": "Incidence rate, left paw", "setting": "[1]; [12]", "value": "2/12 (17%)"},
      {"measurement": "Incidence rate, left paw", "setting": "[1]; [13]", "value": "2/12 (17%)"},
      {"measurement": "Incidence rate, left paw", "setting": "[1]; [14]", "value": "0/12 (0%)"},
      {"measurement": "Incidence rate, right paw", "setting": "[1]; [12]", "value": "8/12 (67%)"},
      {"measurement": "Incidence rate, right paw", "setting": "[1]; [13]", "value": "4/12 (33%)"},
      {"measurement": "Incidence rate, right paw", "setting": "[1]; [14]", "value": "3/12 (25%)"},
      {"measurement": "Incidence rate, left paw", "setting": "[1]; [15]", "value": "2/12 (17%)"},
      {"measurement": "Incidence rate, left paw", "setting": "[1]; [16]", "value": "2/12 (17%)"},
      {"measurement": "Incidence rate, left paw", "setting": "[1]; [17]", "value": "0/12 (0%)"},
      {"measurement": "Incidence rate, right paw", "setting": "[1]; [15]", "value": "9/12 (75%)"},
      {"measurement": "Incidence rate, right paw", "setting": "[1]; [16]", "value": "4/12 (33%)"},
      {"measurement": "Incidence rate, right paw", "setting": "[1]; [17]", "value": "4/12 (33%)"},
      {"measurement": "Plasma drug concentration at 24 h", "setting": "[2]; 1 mg/cm^2", "value": "Below a lower detection limit"},
      {"measurement": "Drug concentration in skin tissues at 4 h", "setting": "[2]; [18]", "value": "33,033 ng/g"},
      {"measurement": "Drug concentration in skin tissues at 24 h", "setting": "[2]; [18]", "value": "7,907 ng/g"},
      {"measurement": "concentration at 4 h", "setting": "[2]; mouse, dorsal skin tissue homogenate, 1 mg/cm^2, mean, read-out: Drug concentration in skin tissues at 4 h", "value": 33000, "unit": "ng/g"},
      {"measurement": "concentration at 24 h", "setting": "[2]; mouse, dorsal skin tissue homogenate, 1 mg/cm^2, mean, read-out: Drug concentration in skin tissues at 24 h", "value": 7910, "unit": "ng/g"},
      {"measurement": "concentration at 4 h", "setting": "[2]; mouse, plasma, 1 mg/cm^2, mean, read-out: Plasma drug concentration at 4 h", "value": 6.15, "unit": "ng/mL"},
      {"measurement": "Cmax", "setting": "[2]; mouse, topical or ocular, plasma, 1 mg/cm^2, 1 cm^2, mean", "value": 14, "unit": "ng/mL"},
      {"measurement": "AUC(0-inf)", "setting": "[2]; [19]", "value": 57.5, "unit": "ng·h/mL"},
      {"measurement": "AUC(0-t)", "setting": "[2]; [19]", "value": 40.7, "unit": "ng·h/mL"},
      {"measurement": "MRT inf", "setting": "[2]; [19]", "value": 5.54, "unit": "h"},
      {"measurement": "Tmax", "setting": "[2]; [19]", "value": 1.67, "unit": "h"},
      {"measurement": "half-life", "setting": "[2]; [19]", "value": 5.15, "unit": "h"},
      {"measurement": "AUC Extr", "setting": "[2]; plasma, 1 mg/cm^2, mean", "value": 18.9, "unit": "%"},
      {"measurement": "AUCInf/Dose", "setting": "[2]; plasma, 1 mg/cm^2, mean", "value": 1.63, "unit": "kg·ng·h/mL/mg"},
      {"measurement": "concentration at 24 h", "setting": "[3]; read-out: Drug concentration in dorsal dermis skin tissues at 24 h", "value": 88300, "unit": "ng/g"},
      {"measurement": "concentration at 24 h", "setting": "[3]; abdominal skin tissue, read-out: Drug concentration in abdominal skin tissues at 24 h", "value": 111000, "unit": "ng/g"},
      {"measurement": "concentration at 24 h", "setting": "[3]; plasma, read-out: Plasma drug concentration at 24 h", "value": 17.7, "unit": "ng/mL"},
      {"measurement": "AUC(0-t)", "setting": "[3]; topical or ocular, plasma", "value": 304, "unit": "ng·h/mL"},
      {"measurement": "Cmax", "setting": "[3]; topical or ocular, plasma", "value": 21.6, "unit": "ng/mL"},
      {"measurement": "MRT inf", "setting": "[3]; topical or ocular, plasma", "value": 15.2, "unit": "h"},
      {"measurement": "Tmax", "setting": "[3]; topical or ocular, plasma", "value": 16, "unit": "h"},
      {"measurement": "concentration at 24 h", "setting": "[4]; dorsal skin tissue homogenate, dorsal skin homogenate, 3% suspension ointment, read-out: Drug concentration in skin tissues at 24 h", "value": 161000, "unit": "ng/g"},
      {"measurement": "concentration at 24 h", "setting": "[4]; dorsal skin tissue homogenate, dorsal skin homogenate, 10% suspension ointment, read-out: Drug concentration in skin tissues at 24 h", "value": 800000, "unit": "ng/g"},
      {"measurement": "concentration at 24 h", "setting": "[4]; plasma, 3% suspension ointment, read-out: Plasma drug concentration at 24 h", "value": 3.21, "unit": "ng/mL"},
      {"measurement": "concentration at 24 h", "setting": "[4]; plasma, 10% suspension ointment, read-out: Plasma drug concentration at 24 h", "value": 17.3, "unit": "ng/mL"},
      {"measurement": "stability in diisopropyl oxalate", "setting": "[5]", "value": "unstable"},
      {"measurement": "stability in propylene carbonate", "setting": "[5]", "value": "unstable"}
    ]}
  ]
}
